Assay results published in PubChem BioAssay AID2610 (Broad Institute, 2010).
Inconclusive results are not listed. Active and inactive are the calls of the source.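 Rule for the calls: active = EC50 no more than tenfold above the top concentration tested, with valid fit and all samples agreeing; inconclusive = flat fit at 30 to 70% inhibition, poor fit, or split samples; inactive = EC50 beyond tenfold the top concentration tested.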

test system: BJeLR fibroblast viability, Alamar Blue fluorescence, 48 h; assay: cytotoxicity toward RAS-transformed BJeLR fibroblasts, dose response, cell-based, alamar blue fluorescence, 48 h, cherrypicked samples (AID 2610);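 note: BJ fibroblasts with hTERT plus SV40 large and small T and HRAS V12; EC50 for loss of viable cells so potency reflects cytotoxic compounds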

| Compound | EC50 |
| --- | --- |
| O=C(Nc1ccc([N+](=O)[O-])cc1)Nc1ccon1 | 0.38 µM |
| COc1cc(OC)cc(C(=O)N[C@H](C(=O)Nc2nc3ccccc3[nH]2)C(C)C)c1 | 0.324 µM |
| Nc1ncnc2c1ccn2[C@@H]1O[C@H](CO)[C@@H](O)[C@H]1O | < 0.104 µM |
| COc1ccc(N=C2S/C(=C\c3ccc(Cl)c([N+](=O)[O-])c3)C(=O)N2CCN(C)C)cc1 | 1.37 µM |
| COc1ccccc1/C=C1\SC(=O)N(CCC(=O)NCCCn2ccnc2)C1=O | > 13.3 µM (inactive) |
| CC1=CC(C)(C)N(S(=O)(=O)c2ccc(C)cc2)c2cc(C)ccc21 | 0.386 µM |
| Cc1ccc(Nc2nc(N)nc(CCl)n2)c(C)c1 | 0.388 µM |
| Cc1cccc(Nc2nc(N)nc(CCl)n2)c1 | 2.21 µM |
| CC1CN(S(=O)(=O)c2ccc(C(=O)NCCCn3ccnc3)cc2)CC(C)O1 (configuration not stated) | 0.436 µM |
| COc1cc2c(c(OC)c1OC)-c1ccc(O)c(=O)cc1C(NC(C)=O)CC2 (configuration not stated) | < 0.104 µM |
| Cc1ccc(C2CC(c3cccs3)=NN2C(=O)CCl)cc1 (configuration not stated) | 0.727 µM |
| COc1ccccc1-n1cnc2cc(NCc3cccs3)ccc21 | < 0.104 µM |
| COc1cc(/C=C/c2ccc3cccc(O)c3n2)cc(OC)c1OC | 3.37 µM |
| CCC(C)C(=O)OCC1(c2ccc(C)cc2OC(=O)C(C)C)CO1 (configuration not stated) | > 13.3 µM (inactive) |
| O=Cc1cc2ccccc2nc1SCc1ccc(Cl)c(Cl)c1 | < 0.104 µM |
| COc1ccc(F)cc1CN1CCN(C(=O)CCC(=O)Nc2nnc(CC(C)C)s2)CC1 | > 13.3 µM (inactive) |
| CC(Oc1ccc(Cl)cc1Cl)c1nc(-c2ccc(NC(=O)c3cccnc3)cc2)no1 (configuration not stated) | 1.58 µM |
| COc1ccc(C2C(O)C(c3c[nH]c4ccccc34)=NN2C(=O)CCl)cc1 (configuration not stated) | 0.307 µM |
| S=C(N/N=C/c1ccc2ncccc2c1)Nc1ccccc1 | > 13.3 µM (inactive) |
| O=C(Nc1nc2ccccc2[nH]1)c1ccccc1F | > 13.3 µM (inactive) |
| COc1ccc(C(=O)Nc2nc3ccccc3s2)c(OC)c1 | > 13.3 µM (inactive) |
| Cc1ccccc1OCC(O)CNC1CCC(NCC(O)COc2ccccc2C)CC1 (configuration not stated) | 0.582 µM |
| CC(=O)c1ccc(NC(=O)N2CCc3ccccc3C2)cc1 | > 13.3 µM (inactive) |
| CCNC(=S)NNC(=O)c1cc(-c2ccc(OCC)cc2)nc2ccccc12 | > 13.3 µM (inactive) |
| COc1ccc(COC(=O)c2cc([N+](=O)[O-])ccc2N2CCOCC2)cc1F | < 0.104 µM |
| COC(=O)c1cccc(Nc2c3c(nc4ccccc24)CCC3)c1 | 2.6 µM |

| Compound | EC50 |
| --- | --- |
| CCOc1ccccc1C(=O)N1CCN(c2cccc(Cl)c2)CC1 | < 0.104 µM |
| O=[N+]([O-])c1cc(Br)c(Nc2ccccc2)c([N+](=O)[O-])c1 | 0.537 µM |
| COc1ccc(/C=N/NC(=O)c2[nH]c3ccc(Br)cc3c2-c2ccccc2)cc1 | < 0.0703 µM |
| CC[C@@]1(O)C(=O)OCc2c1cc1n(c2=O)Cc2cc3c(N)cccc3nc2-1 | < 0.0307 µM |
| CCCc1cc(=O)[nH]c(SCC(=O)c2c(N)n(CC(C)C)c(=O)n(C)c2=O)n1 | > 13.3 µM (inactive) |
| COc1cccc(CSc2nc3ccccc3cc2C=O)c1 | 0.111 µM |
| Cn1cnc([N+](=O)[O-])c1Sc1ncnc2nc[nH]c12 | > 13.3 µM (inactive) |
| CCN(CC)c1ccc2c(cc1=O)[C@@H](NC)CCc1cc(OC)c(OC)c(OC)c1-2 | 0.38 µM |
| Cc1cccc(N(C)S(=O)(=O)c2ccc(-c3cnc(C4CC4)o3)cc2)c1 | < 0.104 µM |
| CN(C)CCNC(=O)c1cc2c(s1)-c1ccc(Cl)cc1SC2 | 1.12 µM |
| Cc1cc(C)c2c(CCl)cc(=O)oc2c1 | 0.116 µM |
| COc1cc(/C=C/[N+](=O)[O-])ccc1O | 6.5 µM |
| COC(=O)C[C@](O)(CCCC(C)(C)O)C(=O)O[C@@H]1C(OC)=C[C@]23CCCN2CCc2cc4c(cc2[C@H]13)OCO4 | < 0.0347 µM |
| O=C(COc1ccc(Cl)cc1)Nc1ccc(C(=O)NCc2cccnc2)cc1 | 4.42 µM |
| CCN(CC)c1ccc(/C=N/NC(=O)c2ccco2)c(O)c1 | 0.804 µM |
| O=[N+]([O-])c1ccc(N=Nc2ncc[nH]2)cc1 | 2.37 µM |
| Nc1nc(CCl)nc(N(c2ccccc2)c2ccccc2)n1 | 0.121 µM |
| CC[C@@]1(O)C(=O)OCc2c1cc1n(c2=O)Cc2cc3c(NC(=O)CN)cccc3nc2-1 | 0.292 µM |
| Cc1c(C(=O)OCC(=O)N2CC(=O)Nc3ccccc32)oc2ccc(Br)cc12 | > 13.3 µM (inactive) |
| CC1CC(C)CN(S(=O)(=O)c2ccc(C(=O)NCCCn3ccnc3)cc2)C1 (configuration not stated) | 0.15 µM |
| CCCCCCCCCCn1c2c(c(=N)c3c1CCC3)CCC2 | 0.82 µM |
| O=C(CCl)Nc1cc(SCC(O)CO)cc([N+](=O)[O-])c1 (configuration not stated) | 0.997 µM |
| CCN1/C(=C/c2ccc3cc(C)ccc3[n+]2CC)Sc2ccc3sccc3c21 | < 0.104 µM |
| CCN(CC)CCCNC(=O)c1cc(-c2ccccc2)c(N2CCCCC2)s1 | > 13.3 µM (inactive) |
| COc1ccc(/C=C/c2cc(-c3ccc(C)cc3)o[n+]2C)cc1 | 0.654 µM |
| Cc1ccc(C(=O)c2cc([N+](=O)[O-])ccc2N2CCCCC2)c(C)c1 | < 0.104 µM |

| Compound | EC50 |
| --- | --- |
| Cc1ccc(NC(=O)[C@H](Cc2c[nH]c3ccccc23)NC(=O)[C@@H]2Cc3ccccc3CN2)c(C)c1 | > 13.3 µM (inactive) |
| CC(C)(C)c1ccc(C(=O)Nc2ccc(C(=O)NCc3cccnc3)cc2)cc1 | < 0.118 µM |
| O=C(N/N=C(\c1ccccc1)c1cccnc1)c1cccc(F)c1 | 0.697 µM |
| C/C(=N\NC(=O)c1ccccc1F)c1ccccn1 | 4.14 µM |
| Cc1cccc(NC2=NC(C)(C)N=C(N)N2)c1 | > 13.3 µM (inactive) |
| Cc1ccc(C(C)C)c(OCc2ccc(C(=O)N/N=C/c3cccc(O)c3O)cc2)c1 | 0.496 µM |
| Cc1ccc2[nH]c3c(c2c1)CCCC3NC(=O)CCl (configuration not stated) | 2.27 µM |
| Nc1ccc2c(c1)C(=O)C(=O)c1ccccc1-2 | 1.72 µM |
| O=C(NC(Nc1nc2ccc([N+](=O)[O-])cc2s1)(C(F)(F)F)C(F)(F)F)c1ccccc1Cl | 0.427 µM |
| C[C@@H]1O[C@@H](O[C@H]2C[C@@H](O)[C@]3(CO)[C@H]4[C@H](O)C[C@]5(C)[C@@H](C6COC(=O)C6)CC[C@]5(O)[C@@H]4CC[C@]3(O)C2)[C@H](O)[C@H](O)[C@H]1O (some centres not stated) | 0.802 µM |
| c1ccc(-c2ccc(-c3nc(-c4ccccn4)no3)cc2)cc1 | > 13.3 µM (inactive) |
| O=C1C(=O)c2ccc(-c3ccccc3)cc2-c2ccccc21 | 0.926 µM |
| Cc1ccc(/C=N/NC(=O)c2n[nH]c3c2CCCC3)cc1 | < 0.104 µM |
| COc1ccccc1N1CCN(C(=O)c2cc(=O)c3cc(C)cc(C)c3o2)CC1 | < 0.104 µM |
| COc1ccc(CCNc2nnc(Sc3nnnn3-c3ccccc3)s2)cc1OC | 0.344 µM |
| Cc1sc2cc3c(c(C(=O)c4ccccc4)[n+]2c1C)-c1cccc2cccc-3c12 | 10.5 µM |
| CCc1ccc(CCC(=O)Nc2ncc(Cc3ccccc3Cl)s2)o1 | 1.06 µM |
| CCCCCCCN(C(=O)CCl)c1cccc(C)c1 | 0.429 µM |
| COc1ccc(OC)c2sc(N(CCCN(C)C)C(=O)c3ccc(S(=O)(=O)N4CCc5ccccc5C4)cc3)nc12 | 0.108 µM |
| Cc1cc(N)c2cc(NC(=O)/C=C/c3ccccc3Cl)ccc2n1 | 1.24 µM |
| CCN(CC)C(=O)c1ccc(NC(=O)Nc2ccccc2F)cc1 | > 13.3 µM (inactive) |
| O=C(NCCOc1cccnc1)c1ccc(OC2CCN(Cc3ccccn3)CC2)cc1 | < 0.0919 µM |
| O=c1c2ccccc2cnn1-c1nc2ccccc2[nH]1 | > 13.3 µM (inactive) |
| CCCCCN=Cc1c(C)[nH]n(-c2nc3ccccc3s2)c1=O | > 13.3 µM (inactive) |
| Cc1cc2nc(/C=C/c3cccnc3)[nH]c2cc1C | < 0.104 µM |
